Experimental data taken from patent US12404262B2 (priority 2021, dated 2025).

Conditions: 1.0% DMSO, 24-hour incubation at ambient temperature, maximum theoretical 100 μM; for pH 2 solubility: 0.1N HCl, first value of the cell; for pH 7 solubility: 1×PBS buffer (pH 7.4), second value of the cell

Row | Structure (SMILES) | pH 2 solubility | pH 7 solubility
1 | CC(C)(C#Cc1ccc(-c2ccc(Cl)c3c(N(C(=O)CCN4CCNCC4)S(C)(=O)=O)nn(CC(F)(F)F)c23)c([C@H](Cc2cc(F)cc(F)c2)NC(=O)Cn2nc(C(F)(F)F)c3c2C(F)(F)[C@@H]2C[C@H]32)n1)S(C)(=O)=O [Compound 9, N-(4-chloro-7-(2-((S)-1-(2-((3bS,4aR)-5,5-difluoro-3-(trifluoromethyl)-3b,4,4a,5-tetrahydro-1H-cyclopropa[3,4]cyclopenta[1,2-c]pyrazol-1-yl)acetamido)-2-(3,5-difluorophenyl)ethyl)-6-(3-methyl-3-(methylsulfonyl)but-1-yn-1-yl)pyridin-3-yl)-1-(2,2,2-trifluoroethyl)-1H-indazol-3-yl)-N-(methylsulfonyl)-3-(piperazin-1-yl)propanamide] | 2 μM | 21 μM
2 | CC(C)(C#Cc1ccc(-c2ccc(Cl)c3c(N(COC(=O)CCP(=O)(O)O)S(C)(=O)=O)nn(CC(F)(F)F)c23)c([C@H](Cc2cc(F)cc(F)c2)NC(=O)Cn2nc(C(F)(F)F)c3c2C(F)(F)[C@@H]2C[C@H]32)n1)S(C)(=O)=O [Compound 21, (3-((N-(4-chloro-7-(2-((S)-1-(2-((3bS,4aR)-5,5-difluoro-3-(trifluoromethyl)-3b,4,4a,5-tetrahydro-1H-cyclopropa[3,4]cyclopenta[1,2-c]pyrazol-1-yl)acetamido)-2-(3,5-difluorophenyl)ethyl)-6-(3-methyl-3-(methylsulfonyl)but-1-yn-1-yl)pyridin-3-yl)-1-(2,2,2-trifluoroethyl)-1H-indazol-3-yl)methylsulfonamido)methoxy)-3-oxopropyl)phosphonic acid] | 86 μM | 1 μM
3 | CC(C)(C)C(=O)OCN(c1nn(CC(F)(F)F)c2c(-c3ccc(C#CC(C)(C)S(C)(=O)=O)nc3[C@H](Cc3cc(F)cc(F)c3)NC(=O)Cn3nc(C(F)(F)F)c4c3C(F)(F)[C@@H]3C[C@H]43)ccc(Cl)c12)S(C)(=O)=O [Compound 30, (N-(4-chloro-7-(2-((S)-1-(2-((3bS,4aR)-5,5-difluoro-3-(trifluoromethyl)-3b,4,4a,5-tetrahydro-1H-cyclopropa[3,4]cyclopenta[1,2-c]pyrazol-1-yl)acetamido)-2-(3,5-difluorophenyl)ethyl)-6-(3-methyl-3-(methylsulfonyl)but-1-yn-1-yl)pyridin-3-yl)-1-(2,2,2-trifluoroethyl)-1H-indazol-3-yl)methylsulfonamido)methyl pivalate] | 1/1 μM | 1/1 μM
4 | CC(C)(O)CNC(=O)N(c1nn(CC(F)(F)F)c2c(-c3ccc(C#CC(C)(C)S(C)(=O)=O)nc3[C@H](Cc3cc(F)cc(F)c3)NC(=O)Cn3nc(C(F)(F)F)c4c3C(F)(F)[C@@H]3C[C@H]43)ccc(Cl)c12)S(C)(=O)=O [Compound 32, N—((S)-1-(3-(4-chloro-3-(N-((2-hydroxy-2-methylpropyl)carbamoyl)methylsulfonamido)-1-(2,2,2-trifluoroethyl)-1H-indazol-7-yl)-6-(3-methyl-3-(methylsulfonyl)but-1-yn-1-yl)pyridin-2-yl)-2-(3,5-difluorophenyl)ethyl)-2-((3bS,4aR)-5,5-difluoro-3-(trifluoromethyl)-3b,4,4a,5-tetrahydro-1H-cyclopropa[3,4]cyclopenta[1,2-c]pyrazol-1-yl)acetamide] | 1/1 μM | 1/1 μM
5 | CC(C)(C#Cc1ccc(-c2ccc(Cl)c3c(N(C(=O)CN4CCOCC4)S(C)(=O)=O)nn(CC(F)(F)F)c23)c([C@H](Cc2cc(F)cc(F)c2)NC(=O)Cn2nc(C(F)(F)F)c3c2C(F)(F)[C@@H]2C[C@H]32)n1)S(C)(=O)=O [Compound 4, (N-(4-chloro-7-(2-((S)-1-(2-((3bS,4aR)-5,5-difluoro-3-(trifluoromethyl)-3b,4,4a,5-tetrahydro-1H-cyclopropa[3,4]cyclopenta[1,2-c]pyrazol-1-yl)acetamido)-2-(3,5-difluorophenyl)ethyl)-6-(3-methyl-3-(methylsulfonyl)but-1-yn-1-yl)pyridin-3-yl)-1-(2,2,2-trifluoroethyl)-1H-indazol-3-yl)-N-(methylsulfonyl)-2-morpholinoacetamide)] | 33 μM | 7 μM
6 | C[C@@H](O)CN(C)C(=O)N(c1nn(CC(F)(F)F)c2c(-c3ccc(C#CC(C)(C)S(C)(=O)=O)nc3[C@H](Cc3cc(F)cc(F)c3)NC(=O)Cn3nc(C(F)(F)F)c4c3C(F)(F)[C@@H]3C[C@H]43)ccc(Cl)c12)S(C)(=O)=O [Compound 48, N—((S)-1-(3-(4-chloro-3-(N—(((R)-2-hydroxypropyl)(methyl)carbamoyl)methylsulfonamido)-1-(2,2,2-trifluoroethyl)-1H-indazol-7-yl)-6-(3-methyl-3-(methylsulfonyl)but-1-yn-1-yl)pyridin-2-yl)-2-(3,5-difluorophenyl)ethyl)-2-((3bS,4aR)-5,5-difluoro-3-(trifluoromethyl)-3b,4,4a,5-tetrahydro-1H-cyclopropa[3,4]cyclopenta[1,2-c]pyrazol-1-yl)acetamide] | 1/1 μM | 1/1 μM
7 | CN(CCCN)C(=O)N(c1nn(CC(F)(F)F)c2c(-c3ccc(C#CC(C)(C)S(C)(=O)=O)nc3[C@H](Cc3cc(F)cc(F)c3)NC(=O)Cn3nc(C(F)(F)F)c4c3C(F)(F)[C@@H]3C[C@H]43)ccc(Cl)c12)S(C)(=O)=O [Compound 79, N—((S)-1-(3-(3-(N-((3-aminopropyl)(methyl)carbamoyl)methylsulfonamido)-4-chloro-1-(2,2,2-trifluoroethyl)-1H-indazol-7-yl)-6-(3-methyl-3-(methylsulfonyl)but-1-yn-1-yl)pyridin-2-yl)-2-(3,5-difluorophenyl)ethyl)-2-((3bS,4aR)-5,5-difluoro-3-(trifluoromethyl)-3b,4,4a,5-tetrahydro-1H-cyclopropa[3,4]cyclopenta[1,2-c]pyrazol-1-yl)acetamide] | 59 μM | 14 μM
8 | C[C@H](OC(=O)N(c1nn(CC(F)(F)F)c2c(-c3ccc(C#CC(C)(C)S(C)(=O)=O)nc3[C@H](Cc3cc(F)cc(F)c3)NC(=O)Cn3nc(C(F)(F)F)c4c3C(F)(F)[C@@H]3C[C@H]43)ccc(Cl)c12)S(C)(=O)=O)[C@H](C)OP(=O)(O)O [Compound 96, (2S,3S)-3-(phosphonooxy)butan-2-yl (4-chloro-7-(2-((S)-1-(2-((3bS,4aR)-5,5-difluoro-3-(trifluoromethyl)-3b,4,4a,5-tetrahydro-1H-cyclopropa[3,4]cyclopenta[1,2-c]pyrazol-1-yl)acetamido)-2-(3,5-difluorophenyl)ethyl)-6-(3-methyl-3-(methylsulfonyl)but-1-yn-1-yl)pyridin-3-yl)-1-(2,2,2-trifluoroethyl)-1H-indazol-3-yl)(methylsulfonyl)carbamate] | 1 μM | 99 μM
9 | CC(C)(C#Cc1ccc(-c2ccc(Cl)c3c(N(C(=O)NCCN4CCOCC4)S(C)(=O)=O)nn(CC(F)(F)F)c23)c([C@H](Cc2cc(F)cc(F)c2)NC(=O)Cn2nc(C(F)(F)F)c3c2C(F)(F)[C@@H]2C[C@H]32)n1)S(C)(=O)=O [Compound 42, N—((S)-1-(3-(4-chloro-3-(N-((2-morpholinoethyl)carbamoyl)methylsulfonamido)-1-(2,2,2-trifluoroethyl)-1H-indazol-7-yl)-6-(3-methyl-3-(methylsulfonyl)but-1-yn-1-yl)pyridin-2-yl)-2-(3,5-difluorophenyl)ethyl)-2-((3bS,4aR)-5,5-difluoro-3-(trifluoromethyl)-3b,4,4a,5-tetrahydro-1H-cyclopropa[3,4]cyclopenta[1,2-c]pyrazol-1-yl)acetamide] | 62 μM | 5 μM
10 | CC(C)(CNC(=O)N(c1nn(CC(F)(F)F)c2c(-c3ccc(C#CC(C)(C)S(C)(=O)=O)nc3[C@H](Cc3cc(F)cc(F)c3)NC(=O)Cn3nc(C(F)(F)F)c4c3C(F)(F)[C@@H]3C[C@H]43)ccc(Cl)c12)S(C)(=O)=O)OP(=O)(O)O [Compound 33, 1-(3-(4-chloro-7-(2-((S)-1-(2-((3bS,4aR)-5,5-difluoro-3-(trifluoromethyl)-3b,4,4a,5-tetrahydro-1H-cyclopropa[3,4]cyclopenta[1,2-c]pyrazol-1-yl)acetamido)-2-(3,5-difluorophenyl)ethyl)-6-(3-methyl-3-(methylsulfonyl)but-1-yn-1-yl)pyridin-3-yl)-1-(2,2,2-trifluoroethyl)-1H-indazol-3-yl)-3-(methylsulfonyl)ureido)-2-methylpropan-2-yl dihydrogen phosphate] | 6 μM | 16 μM
11 | CC(C)(C#Cc1ccc(-c2ccc(Cl)c3c(N(C(=O)OCCCCCOP(=O)(O)O)S(C)(=O)=O)nn(CC(F)(F)F)c23)c([C@H](Cc2cc(F)cc(F)c2)NC(=O)Cn2nc(C(F)(F)F)c3c2C(F)(F)[C@@H]2C[C@H]32)n1)S(C)(=O)=O [Compound 104, 5-(phosphonooxy)pentyl (4-chloro-7-(2-((S)-1-(2-((3bS,4aR)-5,5-difluoro-3-(trifluoromethyl)-3b,4,4a,5-tetrahydro-1H-cyclopropa[3,4]cyclopenta[1,2-c]pyrazol-1-yl)acetamido)-2-(3,5-difluorophenyl)ethyl)-6-(3-methyl-3-(methylsulfonyl)but-1-yn-1-yl)pyridin-3-yl)-1-(2,2,2-trifluoroethyl)-1H-indazol-3-yl)(methylsulfonyl)carbamate] | 1 μM | 89 μM
